The values that follow come from PMC12019328, “Discovery of an ApoE4-targeted small-molecule SirT1 enhancer for the treatment of Alzheimer’s disease” (Scientific Reports, 2025).

Entries after “also recorded” stand apart in the source; their conditions may differ.

In data set [1] the test system is NFYb mRNA. Nature of the data set: Hippocampal NFYb mRNA in ApoE4-TR:5xFAD mice. The format is in vivo. The note with it: 20 mg/Kg BID, 56 days, vs vehicle. On the procedure: The active (-) enantiomer, DDL-218, underwent efficacy testing in ApoE4-TR:5xFAD mice[27] that were 6-7.5 months old at the start of treatment. ApoE4-TR:5xFAD male and female mice received either 20 mg/Kg DDL-218 BID (~ 8- to10-hour interval; total daily dose of 40 mkd) on weekdays and a single 40 mg/Kg dose on weekends (n = 12) or vehicle-only (n = 11); 8 C57BL/6 mice received vehicle-only as behavioral controls. Dosing was by the oral route and by oral feeding using a pipette as previously described, not gavage, as it is safer for repeated oral dosing than gavage. The dose of 20 mg/kg BID (40 mkd) was selected based on findings from PK analysis and was the highest feasible in the formulation used for oral feeding (compound is first solubilized in water, then mixed strawberry syrup diluted in water, for a final vehicle that is 25% syrup and 75% water). […]
(§1) Total RNA was isolated from cells or brain tissue (Qiagen RNEasy kit). Total RNA (0.5–1.0 µg) mRNA was then converted to cDNA (SuperScript™ III First-Strand Synthesis SuperMix kit; Thermo Fisher), and gene mRNA levels were measured using a gene-specific qRT-PCR Taqman assays (Thermo Fisher). Gene mRNA levels were normalized to GAPDH mRNA levels measured either in the same cDNA sample or in the same qPCR reaction using multiplexing of gene-of-interest/VIC and GAPDH/FAM, normalized by the delta-delta-Ct method.

Data set [2] can be described thus: Brain tissue binding (dialysis of brain homogenate). The format is in vitro ADME. The note with it: pH 7.4, brain homogenate 20 mg/mL, 2 µM compound, 37 °C, read-out: Brain Tissue Binding [fu,bound (%)]. On the procedure: Figure S3B. SirT1 protein levels in N2a-E4 cells after A03 and DDL-214 treatment. Compound treatment was done at 5 and 50 µM. SirT1 levels were measured by AlphaLISA followed and normalized to protein […]
DDL-218 Physiochemical Properties
Brain Tissue Binding [fu,bound (%)]
Brain tissue was homogenized in PBS (pH 7.4) (1: 3 weight(mg)/volume(µL)) and the protein concentration of was determined using the Micro BCA™ Protein Assay Kit (Thermo Fisher Scientific, Cat#23235). Brain homogenate was diluted to 20 mg/mL in PBS (pH 7.4) and added to Slide-A-Lyzer™ MINI Dialysis Devices, 10K MWCO dialysis cups (Thermo Fisher Scientific, Cat#PI88401) in 48-well plate containing PBS (500 µL; pH 7.4). 1 µL of […] compound was added to the brain homogenate (Final Concentration: 2 µM compound, 0.5% DMSO) and incubated on a rocker for 4.5 hours at 37 °C. 50 µL of brain homogenate (within the dialysis cup) and PBS (within the 48-well plate) were transferred to new microcentrifuge tubes containing 200 µL of quenching reagent (100% Acetonitrile) containing internal standard. […]
The % of the unbound drug (fu,bound) was calculated using the following equation: fu,bound = [normalized peak area in buffer side / normalized peak area in brain side] x 100 Liver Microsome Stability [t1/2 (min)] […]

A short description of data set [3]: Observation of mice behavior in the PK study. The class given is in vivo. The note with it: oral gavage 10 or 30 mg/Kg. On the procedure:
C57BL/6J mice were administered DDL-214, -218, or -219 (n = 3 per compound) by oral gavage at a dose of 30 mg/kg in a volume of 5 mL/Kg based on mouse weight. One hour later, mice were euthanized by pentobarbital over-anesthesia and trans-cardial collection of blood for isolation of plasma by centrifugation at 10,000 x g for 10 min at 4 °C. Brain tissue was collected for analysis, frozen on dry ice and stored at -80 °C before analysis.

Data set [4] concerns SirT1 mRNA in Kelly cells. Kind of data set: SirT1 mRNA in Kelly neuroblastoma cells. The note with it: 5 µM, 24 h, vs DMSO control. The format is cell-based, human. On the procedure:
(§2) Human neuroblastoma ‘Kelly’ cells (genotype APOE3/APOE4) were plated in 96-well plates at 50K cells per well and were grown overnight in RPMI 1640 supplemented with 2 mM Glutamine, 10% FBS and 1% Pen-Strep. Cells were treated with 5 µM DDL-214, -218, or -219; or DMSO vehicle (n = 8 per compound). Twenty-four hours later, medium was removed, cells washed and lysed as described above for N2a-E4 cells.
as §1

The subject of data set [5] is PPP2r5e mRNA in Kelly cells. Kind of data set: PPP2r5e mRNA in Kelly neuroblastoma cells. The note with it: 5 µM, 24 h, vs DMSO. The format is cell-based, human. On the procedure:
as §2, §1

With `CC(N)C(=O)OC(C)(C)Cc1ccncc1` (centres unmarked) [DDL-218], in data set [1], the “hippocampal NFYb mRNA” value is listed as “significantly increased”. For the same compound, the fraction unbound at 4.5 h, 2 µM in data set [2] was 0.43. In addition, the “changes in mice behavior indicative of drug-induced toxicity” value in data set [3] was “No notable changes in mice behavior”. For the same compound, in data set [4], the “SirT1 mRNA” value is on record as “greatest increase; also recorded: significantly increased SirT1 mRNA”. Moreover, the “PPP2r5e mRNA” value in data set [5] is “significantly increased”.
